Values quoted from earlier work as cited in patent publication EP2408442B1, “PHARMACEUTICAL COMPOSITION PRESENTING ANTI-INFLAMMATORY PROPERTIES” (Bioxtract S.A., priority 2009, dated 2010).

Settings: 42 or 84 mg of oral not formulated curcumin, including metabolised forms (glucuronides or sulfates)

- oral bioavailability: not bioavailable at all
SMILES: COc1cc(C=CC(=O)CC(=O)C=Cc2ccc(O)c(OC)c2)ccc1O [curcumin, 1,7-bis(4-hydroxyl-3-methoxyphenyl)-1,6-heptadiene-3,5-dione]
